The term pIC50 denotes −log10 of the IC50, conventionally taken in molar units.

One assay concerns the target NAMPT (Homo sapiens, UniProt P43490). Description: TR-FRET Binding Assay of NAMPT with PRPP. The note with it: with 200 μM PRPP and 2.5 mM ATP; 2 nM NAMPT, 2 nM probe, 16 hours equilibration. The method, boiled down: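 Substrate-containing variant: 200 μM PRPP plus 2.5 mM ATP are added to 2 nM NAMPT and 2 nM probe, with a 16-hour incubation ahead of TR-FRET reading.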

In assay [1] the target is NAMPT (human, recombinant, C-terminally His-tagged) (Homo sapiens, UniProt P43490). In words: Time-Resolved Fluorescence Resonance Energy Transfer (TR-FRET) Binding Assay of NAMPT. The note with it: without substrates; 6.8 nM NAMPT, 200 nM probe, 3 hours equilibration. An outline of the steps:
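In a displacement format, the nicotinamide-site tracer at 200 nM competed with test compound for 6.8 nM enzyme detected via 1 nM terbium anti-His antibody; incubation lasted 3 hours at room temperature in 50 mM HEPES pH 7.5, 100 mM NaCl. Normalized 520/495 nm emission ratios gave IC50 values.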

The test system of another assay is PC3 cells. In words: NAMPT Cell Proliferation Assay. In kind it is cell-based. The note with it: Homo sapiens, PC-3, 120 h, 5 days incubation, cell viability by Cell Titer Glo. An outline of the steps:
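IC50 values derive from sigmoidal dose-response fits of percent inhibition of PC3 viability, measured by luminescence after 5 days of compound treatment. Cells (500/well, RPMI containing 10% heat-inactivated FBS) are allowed to attach overnight, and compounds are tested at 10-fold dilutions between 10 μM and 1×10^−5 μM.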

pIC50: −log10 of the molar value.

NAMPT (human, recombinant, C-terminally His-tagged), sequence (P43490 whole entry): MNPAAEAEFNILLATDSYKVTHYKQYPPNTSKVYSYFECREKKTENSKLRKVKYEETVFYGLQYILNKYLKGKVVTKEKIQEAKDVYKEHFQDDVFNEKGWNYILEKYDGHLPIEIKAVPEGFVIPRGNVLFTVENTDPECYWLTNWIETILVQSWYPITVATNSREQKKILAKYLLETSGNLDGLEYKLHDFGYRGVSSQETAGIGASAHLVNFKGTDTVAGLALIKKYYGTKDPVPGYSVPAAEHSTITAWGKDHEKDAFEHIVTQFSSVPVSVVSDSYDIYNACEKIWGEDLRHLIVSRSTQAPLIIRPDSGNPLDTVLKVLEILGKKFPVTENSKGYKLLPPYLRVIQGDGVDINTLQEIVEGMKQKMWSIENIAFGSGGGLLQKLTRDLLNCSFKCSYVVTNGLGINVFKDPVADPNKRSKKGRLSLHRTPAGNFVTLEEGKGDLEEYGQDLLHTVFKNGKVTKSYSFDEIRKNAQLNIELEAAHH
NAMPT, sequence (P43490 whole entry): as above

In the case of `Cc1cc(C(=O)N2CCC(c3ccc(C(=O)NCc4ccn5ccnc5c4)cc3)CC2)c(C)o1` [Example 519, 4-{1-[(2,5-dimethylfuran-3-yl)carbonyl]piperidin-4-yl}-N-(imidazo[1,2-a]pyridin-7-ylmethyl)benzamide], the pIC50 at NAMPT is 9.47; in assay [1], 6.66; with PC3 cells it was 7.22.

For the compound `O=C(NCc1ccn2ccnc2c1)c1ccc(C2CN(C(=O)c3nccs3)C2)cc1` [Example 664, N-(imidazo[1,2-a]pyridin-7-ylmethyl)-4-[1-(1,3-thiazol-2-ylcarbonyl)azetidin-3-yl]benzamide], the pIC50 on NAMPT was 9.13; in assay [1], 6.67; with PC3 cells it was 7.15.

`O=C(CCc1ccccc1)Nc1ccc(NC(=O)NCc2ccn3ccnc3c2)cc1` [Example 285, N-(4-{[(imidazo[1,2-a]pyridin-7-ylmethyl)carbamoyl]amino}phenyl)-3-phenylpropanamide]: the pIC50 was 9.23 at NAMPT, 7.08 in assay [1] and 6.52 in the assay with PC3 cells.

With `O=C(NCc1ccn2ccnc2c1)c1cnc(C2CCN(C(=O)c3ccccc3)CC2)s1` [Example 545, 2-(1-benzoylpiperidin-4-yl)-N-(imidazo[1,2-a]pyridin-7-ylmethyl)-1,3-thiazole-5-carboxamide], the pIC50 at NAMPT is 9.39; in assay [1], 6.96; in the assay with PC3 cells, 7.54.

As to `CC(C)OCC(=O)N1CCC(c2ccc(C(=O)NCc3ccn4ccnc4c3)cc2)C1` (stereo not drawn) [Example 371, N-(imidazo[1,2-a]pyridin-7-ylmethyl)-4-{1-[(propan-2-yloxy)acetyl]pyrrolidin-3-yl}benzamide], the figures for the pIC50 (on NAMPT; in assay [1]; in the assay with PC3 cells) were 9.53, 5.84 and 6.09, respectively.

Consider `O=C(NCc1ccc2nccn2c1)c1ccc(OC2CCN(C(=O)CC3CC3)CC2)cc1` [Example 172, 4-{[1-(cyclopropylacetyl)piperidin-4-yl]oxy}-N-(imidazo[1,2-a]pyridin-6-ylmethyl)benzamide], for which the results for the pIC50 (at NAMPT; in assay [1]; in the assay on PC3 cells) were 8.45, 5.66 and 6.65, respectively.

Turning to `O=C(NCc1ccc2nccn2c1)c1ccc(OC2CCN(C(=O)C3COCCO3)CC2)cc1` (stereo not drawn) [Example 163, 4-{[1-(1,4-dioxan-2-ylcarbonyl)piperidin-4-yl]oxy}-N-(imidazo[1,2-a]pyridin-6-ylmethyl)benzamide], the values for the pIC50 (at NAMPT; in assay [1]; in the assay on PC3 cells) were 8.20, 5.68 and 7.02, respectively.

For `CC(C)C(=O)N1CC[C@@H](Oc2ccc(NC(=O)NCc3ccn4ccnc4c3)cc2)C1` [Example 330, 1-(imidazo[1,2-a]pyridin-7-ylmethyl)-3-(4-{[(3R)-1-(2-methylpropanoyl)pyrrolidin-3-yl]oxy}phenyl)urea], the negative logarithm of the IC50 (pIC50) is 9.36 at NAMPT, 6.49 in assay [1] and 7.64 in the assay on PC3 cells.

In the case of `O=C(NCc1ccn2ccnc2c1)c1ccc(-c2ccc(N3CCOCC3)nc2)s1` [Example 464, N-(imidazo[1,2-a]pyridin-7-ylmethyl)-5-[6-(morpholin-4-yl)pyridin-3-yl]thiophene-2-carboxamide], the negative logarithm of the IC50 (pIC50) was 9.77 on NAMPT, 7.20 in assay [1] and 8.17 in the assay on PC3 cells.

With `O=C(NCc1ccn2ccnc2c1)c1ccc(O[C@H]2CCN(C(=O)[C@H]3CCOC3)C2)cc1` [Example 346, N-(imidazo[1,2-a]pyridin-7-ylmethyl)-4-({(3S)-1-[(3S)-tetrahydrofuran-3-ylcarbonyl]pyrrolidin-3-yl}oxy)benzamide], the figures for the pIC50 (at NAMPT; in assay [1]; in the assay with PC3 cells) were 9.26, 5.51 and 5.15, respectively.

As for `O=C(NCc1ccn2ccnc2c1)c1cnc(N2C(=O)OC[C@H]2COCc2ccccc2)s1` [Example 187, 2-{(4R)-4-[(benzyloxy)methyl]-2-oxo-1,3-oxazolidin-3-yl}-N-(imidazo[1,2-a]pyridin-7-ylmethyl)-1,3-thiazole-5-carboxamide], the pIC50 is 9.76 at NAMPT, 6.26 in assay [1] and 7.47 with PC3 cells.

Consider `O=C(CC1CCCC1)Nc1ccc(NC(=O)NCc2ccn3ccnc3c2)cc1` [Example 118, 2-cyclopentyl-N-(4-{[(imidazo[1,2-a]pyridin-7-ylmethyl)carbamoyl]amino}phenyl)acetamide], for which the results for the pIC50 (on NAMPT; in assay [1]; in the assay with PC3 cells) were 9.63, 7.45 and 7.74, respectively.

Take `COCCN1CCN(c2ncc(C(=O)NCc3ccn4ccnc4c3)s2)CC1` [Example 357, N-(imidazo[1,2-a]pyridin-7-ylmethyl)-2-[4-(2-methoxyethyl)piperazin-1-yl]-1,3-thiazole-5-carboxamide]: the pIC50 at NAMPT was 9.54; in assay [1], below 5.00; with PC3 cells, 5.17.

For `CC(C)CCC(=O)Nc1ccc(NC(=O)NCc2ccn3ccnc3c2)cc1` [Example 280, N-(4-{[(imidazo[1,2-a]pyridin-7-ylmethyl)carbamoyl]amino}phenyl)-4-methylpentanamide], the negative logarithm of the IC50 (pIC50) is 9.67 at NAMPT, 7.95 in assay [1] and 7.89 in the assay with PC3 cells.

In the case of `CC(C)C(C)C(=O)N1CC(c2ccc(C(=O)NCc3ccn4ccnc4c3)cc2)C1` (stereo not drawn) [Example 666, 4-[1-(2,3-dimethylbutanoyl)azetidin-3-yl]-N-(imidazo[1,2-a]pyridin-7-ylmethyl)benzamide], the negative-log IC50 (pIC50) at NAMPT is 9.07; in assay [1], 6.71; in the assay on PC3 cells it was 8.29.

As to `CC1(C(=O)N2CCC(c3ccc(C(=O)NCc4ccn5ccnc5c4)cc3)CC2)COC1` [Example 512, N-(imidazo[1,2-a]pyridin-7-ylmethyl)-4-{1-[(3-methyloxetan-3-yl)carbonyl]piperidin-4-yl}benzamide], the results for the negative logarithm of the IC50 (pIC50) (on NAMPT; in assay [1]; with PC3 cells) were 9.68, 6.20 and 7.75, respectively.

`O=C(NCc1ccn2ccnc2c1)Nc1ccc(C2CCN(C(=O)CC(F)(F)F)CC2)cc1` [Example 713, 1-(imidazo[1,2-a]pyridin-7-ylmethyl)-3-{4-[1-(3,3,3-trifluoropropanoyl)piperidin-4-yl]phenyl}urea]: the pIC50 on NAMPT was 9.16; in assay [1], 7.35; in the assay on PC3 cells it was 8.54.

For `CC(C)OCCNC(=O)N(CC1CCCO1)c1ncc(C(=O)NCc2ccc3nccn3c2)s1` (stereo not drawn) [Example 115, N-(imidazo[1,2-a]pyridin-6-ylmethyl)-2-[{[2-(propan-2-yloxy)ethyl]carbamoyl}(tetrahydrofuran-2-ylmethyl)amino]-1,3-thiazole-5-carboxamide], the pIC50 on NAMPT is 9.17; in assay [1], 6.61; in the assay on PC3 cells, 8.20.

Regarding `CC[C@H](C)C(=O)N1CC(Oc2ccc(NC(=O)NCc3ccn4ccnc4c3)cc2)C1` [Example 426, 1-(imidazo[1,2-a]pyridin-7-ylmethyl)-3-[4-({1-[(2S)-2-methylbutanoyl]azetidin-3-yl}oxy)phenyl]urea], the pIC50 is 9.77 on NAMPT, 7.59 in assay [1] and 8.19 with PC3 cells.

In the case of `CCn1cc(-c2ccc(C(=O)NCc3ccn4ccnc4c3)s2)cn1` [Example 295, 5-(1-ethyl-1H-pyrazol-4-yl)-N-(imidazo[1,2-a]pyridin-7-ylmethyl)thiophene-2-carboxamide], the values for the pIC50 (on NAMPT; in assay [1]; with PC3 cells) were 9.53, 7.25 and 7.62, respectively.

(Values after patent US9187472B2 (AbbVie Inc., priority 2012, dated 2015).)
